From patent US9422267B2, “Fused pyrimidine compounds and use thereof” (Medivation Technologies, Inc., priority 2012, dated 2016)

Test system: Akt phosphorylation induced by IGF-1R in HT-29 cells
Assay: Western blot analysis of Akt phosphorylation induced by IGF-1R
Type: cell-based, Human
Conditions: for phosphorylated AKT levels normalized to actin levels (pAKT/actin): then IGF-1 10 ng/mL 10 min, HT-29
Procedure: Inhibition of Akt phosphorylation induced by IGF-1R was studied by western blot analysis. Human colon carcinoma HT-29 cells were seeded at a density of 8×10^4 cells/well in a 24-well plate and grown in DME/F12 media containing 10% FBS for 24 h. The cells were then depleted of serum by incubation in DME/F12 media lacking FBS for 24 h. […] […] Lysed cells were centrifuged at 13,000 rpm for 15 min and the protein concentration soluble fraction (supernatant) of each sample was determined using a BCA protein assay (Pierce).

| Compound | phosphorylated AKT levels normalized to actin levels (pAKT/actin) (10 nM compound 2 h) | phosphorylated AKT levels normalized to actin levels (pAKT/actin) (100 nM compound 2 h) | phosphorylated AKT levels normalized to actin levels (pAKT/actin) (0.1 nM compound 2 h) | phosphorylated AKT levels normalized to actin levels (pAKT/actin) (1 nM compound 2 h) | Normalized phosphorylated AKT (relative to actin) levels relative to 0.1 nM compound treatment (100 nM) |
| --- | --- | --- | --- | --- | --- |
| O=C(Nc1cnccn1)C1CCCN1c1nc2c(c(Nc3cc(C4CC4)[nH]n3)n1)CCC2 (single isomer, unassigned) [Compound 6a] | 1.40 | – | – | – | – |
| O=C(Nc1ccc(F)nc1)C1CCCN1c1nc2c(c(Nc3cc(C4CCCC4)[nH]n3)n1)CCC2 (racemic) [Compound 4, 1-(4-(5-cyclopentyl-1H-pyrazol-3-ylamino)-6,7-dihydro-5H-cyclopenta[d]pyrimidin-2-yl)-N-(6-fluoropyridin-3-yl)pyrrolidine-2-carboxamide] | – | 0.06 | – | – | – |
| O=C(Nc1ccc(F)nc1)C1CCCCN1c1nc2c(c(Nc3cc(C4CC4)[nH]n3)n1)CCC2 (single isomer, unassigned) [Compound 9a, 1-(4-(5-cyclopropyl-1H-pyrazol-3-ylamino)-6,7-dihydro-5H-cyclopenta[d]pyrimidin-2-yl)-N-(6-fluoropyridin-3-yl)piperidine-2-carboxamide] | 0.53 | 0.02 | – | – | – |
| CC(C)c1cc(Nc2nc(N3CCCCC3C(=O)Nc3ccc(F)nc3)nc3c2CCC3)n[nH]1 (single isomer, unassigned) [Compound 16b, N-(6-fluoropyridin-3-yl)-1-(4-(5-isopropyl-1H-pyrazol-3-ylamino)-6,7-dihydro-5H-cyclopenta[d]pyrimidin-2-yl)piperidine-2-carboxamide] | 0.15 | 0.01 | 0.53 | 0.51 | – |
| O=C(Nc1ccc(F)nc1)C1CCCN1c1nc2c(c(Nc3cc(C4CC4)[nH]n3)n1)CCCC2 (single isomer, unassigned) [Compound 14a, 1-(4-(5-cyclopropyl-1H-pyrazol-3-ylamino)-5,6,7,8-tetrahydroquinazolin-2-yl)-N-(6-fluoropyridin-3-yl)pyrrolidine-2-carboxamide] | 0.43 | 0.35 | 0.73 | 0.51 | – |
| CC(C)c1cc(Nc2nc(N3CCCC3C(=O)Nc3ccc(F)nc3)nc3c2CCCC3)n[nH]1 (single isomer, unassigned) [Compound 13a, N-(6-fluoropyridin-3-yl)-1-(4-(5-isopropyl-1H-pyrazol-3-ylamino)-5,6,7,8-tetrahydroquinazolin-2-yl)pyrrolidine-2-carboxamide] | 0.45 | 0.80 | 0.51 | 0.54 | – |
| O=C(Nc1ccc(F)nc1)C1CCCN1c1nc2c(c(Nc3cc(C4CC4)[nH]n3)n1)CCC2 (single isomer, unassigned) [Compound 2a, 1-(4-(5-cyclopropyl-1H-pyrazol-3-ylamino)-6,7-dihydro-5H-cyclopenta[d]pyrimidin-2-yl)-N-(6-fluoropyridin-3-yl)pyrrolidine-2-carboxamide] | – | – | 1.70 | – | – |
| O=C(Nc1cnccn1)C1CCCN1c1nc2c(c(Nc3cc(C4CC4)[nH]n3)n1)CCC2 (racemic) [Compound 6, 1-(4-(5-cyclopropyl-1H-pyrazol-3-ylamino)-6,7-dihydo-5H-cyclopenta[d]pyrimidin-2-yl)-N-(pyrazin-2-yl)pyrrolidine-2-carboxamide] | 0.01 | 0.01 | – | 0.22 | 0.0 |
| O=C(Nc1ccc(F)nc1)C1CCCN1c1nc2c(c(Nc3cc(C4CC4)[nH]n3)n1)CCC2 (racemic) [Compound 2, 1-(4-(5-cyclopropyl-1H-pyrazol-3-ylamino)-6,7-dihydro-5H-cyclopenta[d]pyrimidin-2-yl)-N-(6-fluoropyridin-3-yl)pyrrolidine-2-carboxamide] | 0.07 | 0.00 | – | 0.91 | – |
| O=C(Nc1ccc(F)nc1)C1C(O)CCN1c1nc2c(c(Nc3cc(C4CC4)[nH]n3)n1)CCC2 (single isomer, unassigned) [Compound 11b, 1-(4-(5-cyclopropyl-1H-pyrazol-3-ylamino)-6,7-dihydro-5H-cyclopenta[d]pyrimidin-2-yl)-N-(6-fluoropyridin-3-yl)-3-hydroxypyrrolidine-2-carboxamide] | – | 0.33 | – | – | – |
| O=C(Nc1ccc(F)nc1)C1CCCN1c1nc2c(c(Nc3cc(C4CCCC4)[nH]n3)n1)CCC2 (single isomer, unassigned) [Compound 4b, 1-(4-(5-cyclopentyl-1H-pyrazol-3-ylamino)-6,7-dihydro-5H-cyclopenta[d]pyrimidin-2-yl)-N-(6-fluoropyridin-3-yl)pyrrolidine-2-carboxamide] | – | 0.20 | – | – | – |
| O=C(Nc1cncnc1)C1CCCN1c1nc2c(c(Nc3cc(C4CC4)[nH]n3)n1)CCC2 (racemic) [Compound 7, 1-(4-(5-cyclopropyl-1H-pyrazol-3-ylamino)-6,7-dihydro-5H-cyclopenta[d]pyrimidin-2-yl)-N-(pyrimidin-5-yl)pyrrolidine-2-carboxamide] | – | 1.20 | – | – | – |
| O=C(Nc1ccc(F)nc1)C1CCCCN1c1nc2c(c(Nc3cc(C4CC4)[nH]n3)n1)CCC2 (racemic) [Compound 9, 1-(4-(5-cyclopropyl-1H-pyrazol-3-ylamino)-6,7-dihydro-5H-cyclopenta[d]pyrimidin-2-yl)-N-(6-fluoropyridin-3-yl)piperidine-2-carboxamide] | 0.07 | 0.00 | 0.67 | 0.71 | – |
| O=C(Nc1ccc(F)nc1)C1CCCCN1c1nc2c(c(Nc3cc(C4CCCC4)[nH]n3)n1)CCC2 (single isomer, unassigned) [Compound 17b, 1-(4-(5-cyclopentyl-1H-pyrazol-3-ylamino)-6,7-dihydro-5H-cyclopenta[d]pyrimidin-2-yl)-N-(6-fluoropyridin-3-yl)piperidine-2-carboxamide] | 0.95 | – | 0.83 | 0.99 | – |
| O=C(Nc1cccnc1)C1CCCN1c1nc2c(c(Nc3cc(C4CC4)[nH]n3)n1)CCC2 (single isomer, unassigned) [Compound 3b, 1-(4-(5-cyclopropyl-1H-pyrazol-3-ylamino)-6,7-dihydro-5H-cyclopenta[d]pyrimidin-2-yl)-N-(pyridin-3-yl)pyrrolidine-2-carboxamide] | 0.57 | 0.02 | – | 1.70 | – |
